Experimental data: US10316313B2, “Mesoporous catalysts of magnetic nanoparticles and free-radical-producing enzymes, and methods of use” (Cornell University, priority 2011, dated 2019)
“Also recorded” adds a separate entry of the source.

Tests used:
[1] = target: T1, Horseradish Peroxidase (HRP, E.C. 1.11.1.7, type VI-A) entrapped in M90 magnetite nanoparticle clusters (M90-BNC) (Armoracia rusticana, UniProt P00433); assay: Phenol/AAP assay, H2O2 substrate inhibition model, M90-BNC; assay type: biochemical
T1 construct: purchased
T1 sequence (P00433 31-338 limits assumed): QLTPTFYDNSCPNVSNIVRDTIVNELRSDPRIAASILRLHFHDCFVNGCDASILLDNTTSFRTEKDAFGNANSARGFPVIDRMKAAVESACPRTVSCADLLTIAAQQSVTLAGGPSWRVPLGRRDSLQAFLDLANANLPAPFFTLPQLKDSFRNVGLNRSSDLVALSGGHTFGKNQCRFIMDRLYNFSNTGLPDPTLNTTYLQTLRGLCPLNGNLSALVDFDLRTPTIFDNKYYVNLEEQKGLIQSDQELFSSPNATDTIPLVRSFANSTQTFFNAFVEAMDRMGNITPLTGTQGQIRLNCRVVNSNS
Description: (§1) The enzymes used in this study were Horseradish Peroxidase (HRP, E.C. 1.11.1.7, type VI-A), Lignin Peroxidase (LiP, E.C. 1.11.1.14), Manganese Peroxidase (MnP; E.C. 1.11.1.13) Versatile Peroxidase (syn. hybrid peroxidase, manganese-lignin peroxidase: VeP EC 1.11.1.16), and laccase. All enzymes used herein were obtained from commercial sources. […] High activity forms were obtained by further purification by FPLC (AKTA Explorer, GE Bioscience) using an anionic exchange column (Resource Q, GE Bioscience). Laccase was used without further purification. Protein signal was monitored at 280 nm and the heme signal at 405 nm. For each enzyme, the fractions with a RZ above 1 were pulled together, concentrated and aliquoted. Phenol, homovanillic acid, veratryl alcohol, methoxylphenol, 4-aminoantipyrine (AAP), glucose (the foregoing being at 98% purity), sodium phosphate buffer (PBS) of pH 7.4 and 67 mM, magnetite microsphere powder, manganese sulfate, hydrogen peroxide, FeCl3.6H2O, and FeCl2.4H2O, O-phosphoethydiamine, gold tetrachlorohydrate, and malonate and tartrate disodium salts were obtained from commercial sources.
(§2) Magnetite nanoparticles were synthesized by co-precipitation of Fe^2+ and Fe^3+ under alkaline conditions in a bubbling nitrogen atmosphere at 25° C. (M25) or 90° C. (M90). An acidic solution (25 ml) of the iron salts (2 g of FeCl2.4H2O and 5.2 g of FeCl3.6H2O) was added dropwise to NaOH (250 ml, 1.5 M) under constant stirring. Non-oxidizing conditions were achieved by bubbling all solutions with nitrogen for 15 minutes prior to reaction. The instantaneous black precipitation of Fe3O4 was captured with a neodymium magnet, washed, and neutralized, and kept in distilled water until further use.
(§3) All BNCs were formed with either M90 or M25 magnetite nanoparticles, gold-coated or not. The BNCs were formed with either Horseradish peroxidase, Lignin Peroxidase, Manganese Peroxidase or Versatile Peroxidase. Typical BNC synthesis required the MNPs to be initially monodispersed (i.e., individualized and non-aggregated MNPs). MNPs were sonicated in an ultrasonic bath for 20 minutes at room temperature and used immediately to form the BNCs. In preliminary experiments, the effects of buffer composition, buffer strength, and incubation time were investigated to measure their influence on the formation of the BNCs and the activity of the enzymes. […]
(§4) The peroxidase activity of native HRP and BNC was monitored using the chromogenic phenol/AAP assay that generates phenoxy radicals that readily react with […] to form the pink-colored quinoneimine dye. An automated plate-reader (Synergy 4, Biotek) with injection capabilities and temperature-controlled chamber was used to record the absorbance of the solution at 510 nm in 96-well plates (4 replicates) for 30 minutes. […]

[2] = target: T2, Horseradish Peroxidase (HRP, E.C. 1.11.1.7, type VI-A) entrapped in M25 magnetite nanoparticle clusters (M25-BNC) (Armoracia rusticana, UniProt P00433); assay: Phenol/AAP assay, H2O2 substrate inhibition model, M25-BNC; assay type: biochemical
T2 construct: purchased
T2 sequence (P00433 31-338 limits assumed): T1 sequence (P00433 31-338 limits assumed)
Description: as §1, §2, §3, §4

[3] = compared to the free enzyme at the same concentration

## OO [H2O2, hydrogen peroxide]
[1]; compared to free HRP
  Vmax: similar; also recorded: No difference in Vmax
  kcat: also increased for lower concentrations of enzymes
[1]; in words, compared to free HRP
  Ki (H2O2 substrate inhibition constant): drastically increased
[1]; ratio to free HRP
  Ki (H2O2 substrate inhibition constant), times greater than the free HRP: about 10 times
[2]; compared to free HRP
  Ki (H2O2 substrate inhibition constant): in the same range than the free HRP; also recorded: in the same range, if not lower, than for the free enzymes
  Km: higher Km; also recorded: increased in the case of BNCs formed with M25
[2]; [3]
  Vmax: two to three times greater than the free enzyme; also recorded: increased in the case of BNCs formed with M25 compared to the Vmax of the free enzymes
  kcat: two to three times greater than the free enzyme; also recorded: drastically increased in the case of BNCs formed with M25 compared to the free enzyme
